# Reference: patent US20040191842A1, “Chemopreventive and therapeutic aspects of polyphenolic compositions and assays” (Medical College of Georgia Research Institute, Inc., priority 2002, published 2004)
# Entries after “also recorded” stand apart in the source; their conditions may differ.
# Assays:
# [1] = test system: p57 (KIP2); assay type: cell-based, human; details: for p57 expression, carcinogen alone: 0.12 μM BaP or 10 μM NNK alone
# Description: Cell treatments. For 24 hours treatments, exponentially growing cells with 40% confluency (to minimize differentiation and spontaneous apoptosis) were either maintained in 50 μM EGCG (2.29 mg/100 ml) or 0.2 mg/ml of GTPPs in tissue culture flasks (25 cm^2). Control flasks contained cells without any treatment. To test whether BaP or NNK interfere with the induction of p57, the human keratinocytes were treated with 0.12 μM BaP, or 10 μM NNK, either alone or in combination with 50 μM EGCG. To examine the time course of p57 induction, cells were treated with 50 μM EGCG and harvested for Western analysis at 30 minutes, 2 hours, 6 hours, and 24 hours. The human keratinocytes were treated when the cell density reached 85-90% confluency (to mimic the epithelium).
# In a parallel series of experiments, treatment with EGCG was performed with 30 micrograms per milliliter (μg/ml) cycloheximide added to the keratinocyte media 30 minutes prior to the addition of EGCG. The dose-response experiments were performed using EGCG concentrations at 30, 50 100, and 200 μM in the culture media for 24 hours.
# Western blot analysis. Cells from different treatment groups were lysed in RIPA buffer (1% NP-40, 1% sodium deoxycholate, 0.1% SDS, 0.15 M NaCl, 0.01 M sodium phosphate, pH 7.2, and 1% Trasylol) containing proteinase inhibitors (1 mM PMSF, 1 μg/ml each of aprotinin, leupeptin, and pepstatin). The concentration of protein in each sample was determined using the BioRad DC Protein Assay and spectrophotometry. Fifty micrograms (μg) of protein from each sample and a BioRad molecular weight standard marker were run on a 10% SDS-PAGE, followed by transfer to nitrocellulose membranes. Nonspecific binding to membranes was blocked with 10% nonfat milk. Specific primary polyclonal (rabbit) antibody against p57 and a horse radish peroxidase-conjugated goat anti-rabbit secondary antibody were used in conjunction with the ECL Chemiluminescence Kit and membranes were exposed to radiographic films for detection.
# [2] = test system: NHEK; assay: MTT assay (SDH activity), NHEK; assay type: cell-based, human
# From the text: (§1) Succinate dehydrogenase activity assay (MTT assay).
# [3] = test system: OSC-2 cells; assay: MTT assay (mitochondrial SDH activity), OSC2 (OSC-2) cells
# Description: This method detects the activity of mitochondrial succinate dehydrogenase (SDH). In a 96-well plate, 1.5×10^4 cells were seeded in each well. After variety of treatments, 100 μl of 2% MTT was added to each well and the plate was incubated at 37° C. for 30 minutes. 100 μl of 0.2 M Tris (pH 7.7) with 4% formalin was added to each well. After incubation at room temperature for 5 minutes, liquid was removed and the wells were allowed to dry. Each well was rinsed with 200 μl water followed by addition of 100 μl DMSO (6.35% 0.1 N NaOH in DMSO) to each well. The coloration was measured by a Thermo MAX microplate reader (Molecular Devices Corp. Sunnyvale, Calif. using wavelengths of 562 nm. Experiments were repeated three times with triplicate samples for each experiment.
# This method directly detects the activity of mitochondrial succinate dehydrogenase (SDH). Changes in SDH activity is a measurement of cell viability when stress is introduced in cell culture through chemical or physical means. Cells (1.5×10^4 cells/well) were seeded in a 96-well microplate and treated with the indicated doses of EGCG for 24 hours. After the treatment, the cells in each well were washed with 200 μl of phosphate-buffered saline (PBS), incubated with 100 μl of 2% MTT in a solution of 0.05 M Tris, 0.5 mM MgCl2, 2.5 mM CoCl2, and 0.25 M disodiumn succinate as substrate (Sigma) at 37° C. for 30 minutes. Cells were fixed in situ by the addition of 100 μl of 4% formalin in 0.2 M Tris (pH 7.7), and after a 5 minute incubation at room temperature liquid was removed and the wells were allowed to dry. Each well was rinsed with 200 μl water and cells were solubilized by the addition of 100 μl of 6.35% 0.1 N NaOH in DMSO. The colored formazan product was measured by a Thermo MAX micro plate reader (Molecular Devices Corp., Sunnyvale, Calif.) at a wavelength of 562 nm. […]
# This method directly detects the activity of mitochondrial succinate dehydrogenase (SDH). […] Solubilized colored formazan product was measured using a Thermo MAX microplate reader (Molecular Devices Corp., Sunnyvale, Calif.) at a wavelength of 562 nm.
# [4] = test system: OSC-2 cells; assay: Intracellular ROS levels (DFDA assay), OSC-2 cells; assay type: cell-based, human; details: 5 mM diamide or relatively high H2O2, 60 minutes
# Description: (§2) Measurement of intracellular ROS levels. The ROS assay measures the accumulation of intracellular ROS levels. The non-fluorescent dye DFDA passively diffuses into cells, where the acetates are cleaved by intracellular esterases. […] Thus, values of the fluorescence in the cell cultures are constantly rising in this assay. Cells (1.5×10^4 cells/well) were incubated with Hallam's physiological saline (HPS) containing DFDA (10 μM) in a 96-well microplate for 30 minutes at 37° C. After the incubation, cells were washed three times with HPS and then incubated with HPS containing EGCG (15-200 μM) or diamide (5 mM) for the indicated time periods. The intracellular ROS levels were measured by using a fluorescence plate reader (BIO-TEK FL600, Bio-Tek Instruments, Inc., Winooski, Vt.), at an excitation wavelength of 485 nm and an emission wavelength of 530 nm.
# as §2, with “assay (DFDA assay)” for “assay”, “dye dichlorofluorescein diacetate (DFDA)” for “dye DFDA”, “this assay due to the accumulation of ROS.” for “this assay.”, “EGCG (50-200” for “EGCG (15-200”, “indicated times.” for “indicated time periods.”
# [5] = test system: OSC-4 cells; assay: MTT assay (SDH activity), OSC-4 cells; assay type: cell-based, human
# Description: MTT [3-(4,5-dimethylthiazol-2-yl)-2,5-diphenyl tetrazolium bromide] assay. This method directly detects the activity of mitochondrial succinate dehydrogenase (SDH). Changes in SDH activity is a measurement of cell viability when stress is introduced in cell culture through chemical or physical means. Cells (1.5×10^4 cells/well) were seeded in a 96-well microplate and treated with the indicated doses of EGCG for 24 hours. After the treatment, the cells in each well were washed with 200 μl of phosphate-buffered saline (PBS), incubated with 100 μl of 2% MTT in a solution of 0.05 M Tris, 0.5 mM MgCl2, 2.5 mM CoCl2, and 0.25 M disodiumn succinate as substrate (Sigma) at 37° C. for 30 minutes. Cells were fixed in situ by the addition of 100 μl of 4% formalin in 0.2 M Tris (pH 7.7), and after a 5 minute incubation at room temperature liquid was removed and the wells were allowed to dry. Each well was rinsed with 200 μl water and cells were solubilized by the addition of 100 μl of 6.35% 0.1 N NaOH in DMSO. The colored formazan product was measured by a Thermo MAX micro plate reader (Molecular Devices Corp., Sunnyvale, Calif.) at a wavelength of 562 nm. Experiments were repeated three times with triplicate samples for each experiment.
# [6] = test system: OSC-2 and OSC-4 cells; assay: MTT assay, OSC-2 and OSC-4 cells pretreated with catalase, 3-AT or NAC; assay type: cell-based, human
# From the text: as §1
# [7] = test system: caspase-3; assay: Caspase-3 activity, OSC-2 and OSC-4 cells pretreated with catalase; assay type: cell-based, human; details: 200 U/ml catalase, 24 hour
# Description: Caspase-3 activity assay. The caspase-3 apoptosis detection kit (Santa Cruz Biotechnology, Inc., Santa Cruz, Calif.) was used to measure caspase-3 activity. Cells (10^5 cells/well) were plated in triplicate in a 24-well tissue culture plate. […] To each well, 100 μl of 2×reaction buffer was added with 10 mM dithiothreitol. Finally, 5 μl of DEVD-AFC substrate was added to each well containing cell lysates. The reaction mixtures were incubated for 1 hour at 37° C., and caspase-3 activity in each well was measured using a fluorescence microplate reader ([…]luor Plus, Tecan US, Research Triangle Park, N.C.) at a wavelength of 405 nm for excitation and 505 nm for emission.
# [8] = test system: OSC-2 and OSC-4 cells; assay: BrdU incorporation, OSC-2 and OSC-4 cells with exogenous catalase; assay type: cell-based, human; details: 200 U/ml catalase, 200 μM EGCG, 24 h
# Description: DNA synthesis assay. DNA synthesis was analyzed by a BrdU cell proliferation assay kit (Oncogene Research Products, Boston, Mass.). […] After the treatment, cells were labeled with BrdU for 2 hours at 37° C. and reacted with anti-BrdU antibody. Unbound antibody in each well was removed by rinsing, and horseradish peroxidase-conjugated goat anti-mouse IgG antibody was added to each well. The color reaction to visualize the secondary antibody was carried out according to the protocol provided by the manufacturer.
# [9] = test system: NHEK; assay: Intracellular ROS levels (DFDA assay), NHEK; assay type: cell-based, human; details: 5 mM diamide, 1-minute incubation
# Description: Measurement of intracellular ROS levels. The ROS assay measures the accumulation of intracellular ROS levels. The non-fluorescent dye DFDA passively diffuses into cells, where the acetates are cleaved by intracellular esterases. […] Thus, values of the fluorescence in the cell cultures are constantly rising in this assay. […] The intracellular ROS levels were measured by using a fluorescence plate reader (BIO-TEK FL600, Bio-Tek Instruments, Inc., Winooski, Vt.), at an excitation wavelength of 485 nm and an emission wavelength of 530 nm.
molecule,measurement,setting,value
"CN(CCCC(=O)c1cccnc1)N=O [NNK, reference compound]","p57 expression, carcinogen alone",[1],did not alter p57 expression
"OO [H2O2, hydrogen peroxide]",SDH activity remained,"[2]; 1 mM H2O2, 24 hours",75%
same,reduction of SDH activity,"[2]; 1 mM H2O2, 24 hours",25%
same,SDH activity,"[3]; 50 μM H2O2, 24 hour",had no effect on the SDH activity
same,H2O2 concentration needed to cause […]% reduction of SDH activity,[3]; 24 hours,250 µM
same,ROS accumulated in OSC-2 cells relative to OSC-4 cells,[4],approximately two
same,SDH activity,[5]; 100 μM H2O2,had no significant effect on SDH activity
same,H2O2 concentration needed to cause […]% reduction of SDH activity,[5]; 24 hours,250 µM
"c1ccc2c(c1)cc1ccc3cccc4ccc2c1c34 [BaP, reference compound]","p57 expression, carcinogen alone",[1],did not alter p57 expression
"Nc1nc[nH]n1 [3-AT, 3-amino-1,2,4-triazole]",susceptibility of NHEK to EGCG cytotoxicity after 3-AT,[2]; pretreatment with 3-AT,did not become susceptible to EGCG cytotoxicity
same,effect of 3-AT on EGCG-induced decline of SDH activity,"[6]; 30 μM 3-AT 2 hours, 200 μM EGCG",had no significant effect on the decline of mitochondrial SDH activity
"C[C@@H]1C[C@@H]([C@H](O)CC2CC(=O)NC(=O)C2)C(=O)[C@@H](C)C1 [cycloheximide, reference compound]",p57 protein levels with cycloheximide,[1]; 30 μg/ml cycloheximide plus 50 μM EGCG,gradual decline in p57 protein levels
"CC(=O)N[C@@H](CS)C(=O)O [NAC, N-acetyl-L-cysteine]",effect of NAC on EGCG-induced cytotoxicity,[6]; 10 mM NAC 2 hour pretreatment,failed to rescue both cell lines from EGCG-induced cytotoxicity
same,effect of NAC on H2O2 cytotoxicity,"[6]; 10 mM NAC 2 hour pretreatment, H2O2 250 and 500 μM",significantly inhibited the cytotoxic effect of H2O2
catalase,effect of exogenous catalase on EGCG-induced caspase 3 activation,[7],partially inhibited EGCG-induced caspase 3 activation
same,effect of exogenous catalase on BrdU incorporation with EGCG,[8],had no effect on the rates of BrdU incorporation
same,effect of exogenous catalase on EGCG-induced SDH reduction in OSC-4 cells,"[6]; 200 U/ml catalase, 200 μM EGCG",partially reversed the effects of 200 μM EGCG
same,effect of exogenous catalase on EGCG-induced SDH reduction,"[6]; 200 U/ml catalase, 200 μM EGCG, 24 h",had no effect on this reduction
"CN(C)C(=O)/N=N/C(=O)N(C)C [diamide, reference compound]",ROS accumulated in OSC-2 cells relative to OSC-4 cells,[4],doubled that in OSC-4 cells; also recorded: approximately two
same,intracellular ROS levels vs endogenous,[9],induced ROS
